Laboratory results reported in US20240182460A1, “ALLOSTERIC CHROMENONE INHIBITORS OF PHOSPHOINOSITIDE 3-KINASE (PI3K) FOR THE TREATMENT OF DISEASE” (PETRA PHARMA CORPORATION, priority 2022, published 2024).

Target: PI3Kα E545K (Homo sapiens, UniProt P42336, E545K)
Assay: PI3Kα E545K mutant in vitro cell based assay, MDA-MB-361 cells
Design: MDA-MB-361 (ATCC-HTB-27) cell line (PI3Kα E545K); host or cells: MDA-MB-361
Conditions: MDA-MB-361 cell line, 0% FBS, no insulin, 3 hours treatment
Source text: PI3K-Alpha Kinase (PI3Kα) Activity: Wild-Type PI3Kα, H1047R Mutant PI3Kα, and E545K Mutant PI3Kα In Vitro Cell Based Assays and Determination of IC50 Values for Inhibitors
The MDA-MB-453 (ATCC-HTB-131) cell line (PI3Kα H1047R) and MCF-7 (ATCC-HTB-22) cell line (PI3Kα E545K), MDA-MB-361 (ATCC-HTB-27) cell line (PI3Kα E545K), and SKBR3 (ATCC-HTB-30) cell line (wild type PI3Kα) were obtained from the American Type Culture Collection (Manassas, VA). MDA-MB-453 cells were maintained in Dulbecco's Modified Eagle Media (DMEM, Gibco 12430) supplemented with 10% Fetal Bovine Serum, heat inactivated (FBS HI, Gibco 10082), 1× non-essential amino acids (NEAA, Gibco 11140), 1 mM sodium pyruvate (Gibco 11360) and 1× Anti-Anti (Gibco 15240). MCF-7 cells were maintained in Minimum Essential Media (MEM) (Gibco 11095) supplemented with 10% Fetal Bovine Serum, heat inactivated (FBS HI, Gibco 10082), 1× non-essential amino acids (NEAA, Gibco 11140), 1 mM sodium pyruvate (Gibco 11360), 1× Anti-Anti (Gibco 15240) and 10 μg/mL human insulin (Sigma I 9278). MDA-MB-361 cells were maintained in Dulbecco's Modified Eagle Media (DMEM, Gibco 12430) supplemented with 20% Fetal Bovine Serum, heat inactivated (FBS HI, Gibco 10082), 1× non-essential amino acids (NEAA, Gibco 11140), 1 mM sodium pyruvate (Gibco 11360) and 1× Anti-Anti (Gibco 15240). SKBR3 cells were maintained in McCoy's 5A (Gibco 16600) supplemented with 10% Fetal Bovine Serum, heat inactivated (FBS HI, Gibco 10082), and 1× Anti-Anti (Gibco 15240). Cultures were maintained in a humidified incubator at 37° C. under 5% CO2/95% air.
For compound testing in 0% FBS, MDA-MB-453, MCF-7 and SKBR3 cells were seeded at a density of 1.5×10^4, 1.0×10^4, and 1.0×10^4 cells, respectively, per well in white 384-well plates in 20 μl of Minimum Essential Media (MEM) assay media with 1×NEAA, 1 mM sodium pyruvate, and 1 μg/mL human insulin (Sigma 19278) (Assay Medium); while MDA-MB-361 cells were seeded at a density of 1.5×10^4 per well in white 384-well plates in 20 μl Assay Medium without insulin. After plating, cells were allowed to attach overnight. Compounds dissolved in 10 mM stock solutions in DMSO were serially diluted 1:3 in DMSO to generate a 10-point dilution series and plated using an acoustic liquid handler system (Echo 550 Series Liquid Handler, Labcyte). A 5× intermediate compound dilution plate in MEM with 1×NEAA and 1 mM sodium pyruvate (150 μM starting compound concentration in 1.5% DMSO) was then prepared. Five μl of the intermediate serially diluted compounds were added to the cell plate to final concentrations ranging from […] in 0.3% DMSO. 0.3% DMSO alone was used to establish the maximum (MAX) signal and GDC-0032 at a final concentration of 1 μM was used as a reference compound for the minimum (MIN) signal. After 3 hours treatment, the medium was removed, and the cells were lysed in 10 μL of 1× SureFire Lysis buffer with shaking for 10 minutes at room temperature. The Acceptor Mix (Reaction Buffer 1+Reaction Buffer 2+Activation Buffer+SureFire Ultra Acceptor Beads) was prepared by diluting Activation buffer 25-fold in combined Reaction Buffer 1 and Reaction Buffer 2.
The Acceptor beads were diluted 50-fold in the combined Reaction Buffers. Five μL of Acceptor Mix was added to each well, the plate was sealed and covered with foil and incubated for 1 hour at room temperature. The Donor Mix (dilution buffer+SureFire Ultra Donor Beads) was prepared by diluting Donor Beads 50-fold in dilution buffer. Five μL of the Donor Mix was added to each well and the plate sealed and covered with foil and incubated for 1-2 hours at room temperature in the dark. The plates were read on a Neo2 plate reader instrument from Biotek using standard AlphaLisa settings.
Compounds were tested in duplicate and the % inhibition at each compound concentration was used to generate two dose response curves. One IC50 was generated using average % inhibition at each compound concentration. […]

PI3Kα E545K, sequence (P42336 whole entry E545K): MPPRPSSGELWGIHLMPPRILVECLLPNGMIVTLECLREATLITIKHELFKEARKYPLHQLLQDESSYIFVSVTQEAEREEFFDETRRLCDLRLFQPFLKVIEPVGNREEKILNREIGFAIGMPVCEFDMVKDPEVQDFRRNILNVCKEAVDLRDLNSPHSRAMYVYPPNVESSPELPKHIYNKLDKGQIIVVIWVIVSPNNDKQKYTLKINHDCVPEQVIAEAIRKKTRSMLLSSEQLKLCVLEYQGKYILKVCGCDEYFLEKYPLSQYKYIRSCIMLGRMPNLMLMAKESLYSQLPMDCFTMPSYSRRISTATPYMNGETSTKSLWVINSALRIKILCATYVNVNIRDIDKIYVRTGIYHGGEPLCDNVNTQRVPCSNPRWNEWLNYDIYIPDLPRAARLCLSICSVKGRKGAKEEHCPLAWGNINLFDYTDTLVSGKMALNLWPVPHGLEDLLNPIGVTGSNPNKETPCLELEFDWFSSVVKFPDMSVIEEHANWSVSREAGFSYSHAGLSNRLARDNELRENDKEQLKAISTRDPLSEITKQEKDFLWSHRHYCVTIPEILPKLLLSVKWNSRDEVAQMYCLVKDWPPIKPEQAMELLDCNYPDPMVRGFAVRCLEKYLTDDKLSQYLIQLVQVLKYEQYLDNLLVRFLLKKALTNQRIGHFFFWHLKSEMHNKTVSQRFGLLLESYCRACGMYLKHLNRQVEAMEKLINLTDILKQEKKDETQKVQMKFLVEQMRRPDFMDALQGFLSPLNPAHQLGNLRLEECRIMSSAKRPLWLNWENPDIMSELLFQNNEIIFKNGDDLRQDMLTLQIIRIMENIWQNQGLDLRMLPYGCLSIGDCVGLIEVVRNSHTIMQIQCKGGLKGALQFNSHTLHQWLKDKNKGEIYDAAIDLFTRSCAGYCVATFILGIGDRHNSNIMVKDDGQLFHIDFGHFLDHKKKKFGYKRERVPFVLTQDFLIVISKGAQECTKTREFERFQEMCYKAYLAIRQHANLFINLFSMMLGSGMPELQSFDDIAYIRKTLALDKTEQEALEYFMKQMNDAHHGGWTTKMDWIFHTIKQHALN
PI3Kα E545K, sequence (P27986 whole entry partner): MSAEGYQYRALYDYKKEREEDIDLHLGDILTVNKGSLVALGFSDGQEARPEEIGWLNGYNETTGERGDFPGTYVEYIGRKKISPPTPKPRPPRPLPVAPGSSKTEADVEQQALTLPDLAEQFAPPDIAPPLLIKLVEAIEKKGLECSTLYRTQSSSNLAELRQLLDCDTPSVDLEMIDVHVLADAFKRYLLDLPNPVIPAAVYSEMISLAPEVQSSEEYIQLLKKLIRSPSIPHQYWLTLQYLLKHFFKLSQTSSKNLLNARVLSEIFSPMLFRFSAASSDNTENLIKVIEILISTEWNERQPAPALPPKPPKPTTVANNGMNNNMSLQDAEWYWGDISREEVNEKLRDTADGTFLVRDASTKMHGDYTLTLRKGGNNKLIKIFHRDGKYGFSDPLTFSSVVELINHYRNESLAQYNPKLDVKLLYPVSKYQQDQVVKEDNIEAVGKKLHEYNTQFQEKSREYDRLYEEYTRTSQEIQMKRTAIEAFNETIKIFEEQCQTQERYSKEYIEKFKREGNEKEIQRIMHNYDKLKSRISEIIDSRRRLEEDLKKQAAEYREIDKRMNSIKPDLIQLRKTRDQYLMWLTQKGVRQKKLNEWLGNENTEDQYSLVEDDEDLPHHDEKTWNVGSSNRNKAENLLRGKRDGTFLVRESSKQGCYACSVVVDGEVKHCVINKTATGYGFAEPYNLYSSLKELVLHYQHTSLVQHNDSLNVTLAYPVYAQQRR

| Structure (SMILES) | IC50 |
| --- | --- |
| Cc1cc([C@@H](C)Oc2ccc(Cl)nc2S(N)(=O)=O)c2oc(-c3cnn4c3COCC4)c(C)c(=O)c2c1 [Example 3B, 6-Chloro-3-[(1R)-1-[2-(6,7-dihydro-4H-pyrazolo[5,1-c][1,4]oxazin-3-yl)-3,6-dimethyl-4-oxo-chromen-8-yl]ethoxy]pyridine-2-sulfonamide] | < 500 nM |
| Cc1cc([C@@H](C)Oc2ccc(Cl)nc2S(N)(=O)=O)c2oc(-c3cnc4c(c3)OCCO4)c(C)c(=O)c2c1 [Example 6B] | < 500 nM |
| Cc1cc([C@@H](C)Oc2ccc(Cl)nc2S(N)(=O)=O)c2oc(-c3cnn(C[C@H](C)O)c3)c(C)c(=O)c2c1 [Example 7B, 6-Chloro-3-[(1R)-1-[2-[1-[(2S)-2-hydroxypropyl]pyrazol-4-yl]-3,6-dimethyl-4-oxo-chromen-8-yl]ethoxy]pyridine-2-sulfonamide] | < 500 nM |
| Cc1cc([C@@H](C)Oc2ccc(Cl)nc2S(N)(=O)=O)c2oc(-c3ccccc3)c(C)c(=O)c2c1 [Example 13A, 6-Chloro-3-[(1R)-1-(3,6-dimethyl-4-oxo-2-phenyl-chromen-8-yl)ethoxy]pyridine-2-sulfonamide] | < 500 nM |
| Cc1cc([C@@H](C)Oc2ccc(Cl)nc2S(N)(=O)=O)c2oc(-c3cnn(C)c3)c(C)c(=O)c2c1 [Example 14A, 6-Chloro-3-[(1R)-1-[3,6-dimethyl-2-(1-methylpyrazol-4-yl)-4-oxo-chromen-8-yl]ethoxy]pyridine-2-sulfonamide] | < 500 nM |
| Cc1cc([C@@H](C)Oc2ccc(Cl)nc2S(N)(=O)=O)c2oc(-c3cnc4c(c3)OCO4)c(C)c(=O)c2c1 [Example 15A, 6-Chloro-3-[(1R)-1-[2-([1,3]dioxolo[4,5-b]pyridin-6-yl)-3,6-dimethyl-4-oxo-chromen-8-yl]ethoxy]pyridine-2-sulfonamide] | < 500 nM |
| Cc1cc([C@@H](C)Oc2ccc(Cl)nc2S(N)(=O)=O)c2oc(-c3cnn(C)c3C)c(C)c(=O)c2c1 [Example 18C, 6-Chloro-3-[(1R)-1-[2-(1,5-dimethylpyrazol-4-yl)-3,6-dimethyl-4-oxo-chromen-8-yl]ethoxy]pyridine-2-sulfonamide] | < 500 nM |
| Cc1cc([C@@H](C)Oc2ccc(Cl)nc2S(N)(=O)=O)c2oc(-c3cnc(OC(C)C)nc3)c(C)c(=O)c2c1 [Example 23C, 6-Chloro-3-[(1R)-1-[2-(2-isopropoxypyrimidin-5-yl)-3,6-dimethyl-4-oxo-chromen-8-yl]ethoxy]pyridine-2-sulfonamide] | < 500 nM |
| Cc1cc([C@@H](C)Oc2ccc(Cl)nc2NC(=O)CO)c2oc(-c3cnn(C)c3)c(C)c(=O)c2c1 [Example 27B, N-[6-Chloro-3-[(1R)-1-[3,6-dimethyl-2-(1-methylpyrazol-4-yl)-4-oxo-chromen-8-yl]ethoxy]-2-pyridyl]-2-hydroxy-acetamide] | < 500 nM |
| Cc1cc([C@@H](C)Oc2ccc(Cl)nc2C(=O)NOCC2CC2)c2oc(-c3ccc4nn(C)cc4c3)c(C)c(=O)c2c1 [Example 28A, 6-Chloro-N-(cyclopropylmethoxy)-3-[(1R)-1-[3,6-dimethyl-2-(2-methylindazol-5-yl)-4-oxo-chromen-8-yl]ethoxy]pyridine-2-carboxamide] | < 500 nM |
| Cc1cc([C@@H](C)Oc2cccnc2-c2ccccc2F)c2oc(-c3cc[nH]c(=O)c3)c(C)c(=O)c2c1 [Example 29A, 4-[8-[(1R)-1-[[2-(2-Fluorophenyl)-3-pyridyl]oxy]ethyl]-3,6-dimethyl-4-oxo-chromen-2-yl]-1H-pyridin-2-one] | < 500 nM |
| Cc1cc([C@@H](C)Oc2cccnc2-c2ccccc2F)c2oc(-c3ccc(=O)[nH]c3)c(C)c(=O)c2c1 [Example 30A] | < 500 nM |
| Cc1cc([C@@H](C)Oc2ccc(Cl)nc2C(N)=O)c2oc(-c3cnn4c3COCC4)c(C)c(=O)c2c1 [Example 40A, 6-Chloro-3-[(1R)-1-[2-(6,7-dihydro-4H-pyrazolo[5,1-c][1,4]oxazin-3-yl)-3,6-dimethyl-4-oxo-chromen-8-yl]ethoxy]pyridine-2-carboxamide] | < 500 nM |
| Cc1cc([C@@H](C)Oc2ccc(Cl)nc2C(N)=O)c2oc(-c3ccc4cncn4c3)c(C)c(=O)c2c1 [Example 43C, 6-Chloro-3-[(1R)-1-(2-imidazo[1,5-a]pyridin-6-yl-3,6-dimethyl-4-oxo-chromen-8-yl)ethoxy]pyridine-2-carboxamide] | < 500 nM |
| Cc1cc([C@@H](C)Oc2ccc(Cl)nc2C(N)=O)c2oc(-c3ccc4nn(C)nc4c3)c(C)c(=O)c2c1 [Example 50A, 6-Chloro-3-[(1R)-1-[3,6-dimethyl-2-(2-methylbenzotriazol-5-yl)-4-oxo-chromen-8-yl]ethoxy]pyridine-2-carboxamide] | < 500 nM |
| Cc1cc([C@@H](C)Oc2ccc(Cl)nc2C(N)=O)c2oc(-c3ccc4nn(C)c(C)c4c3)c(C)c(=O)c2c1 [Example 50C, 6-Chloro-3-[(1R)-1-[2-(2,3-dimethylindazol-5-yl)-3,6-dimethyl-4-oxo-chromen-8-yl]ethoxy]pyridine-2-carboxamide] | < 500 nM |
| Cc1cc([C@@H](C)Oc2ccc(Cl)nc2C(N)=O)c2oc(-c3cnn(C4CC4)c3)c(C)c(=O)c2c1 [Example 51A, 6-Chloro-3-[(1R)-1-[2-(1-cyclopropylpyrazol-4-yl)-3,6-dimethyl-4-oxo-chromen-8-yl]ethoxy]pyridine-2-carboxamide] | < 500 nM |
| Cc1cc([C@@H](C)Oc2ccc(Cl)nc2C(N)=O)c2oc(-c3cnn(C(F)F)c3)c(C)c(=O)c2c1 [Example 58A, 6-Chloro-3-[(1R)-1-[2-[1-(difluoromethyl)pyrazol-4-yl]-3,6-dimethyl-4-oxo-chromen-8-yl]ethoxy]pyridine-2-carboxamide] | < 500 nM |
| Cc1cc([C@@H](C)Oc2ccc(Cl)nc2C(N)=O)c2oc(-c3cnc4c(c3)OCO4)c(C)c(=O)c2c1 [Example 59A, 6-Chloro-3-[(1R)-1-[2-([1,3]dioxolo[4,5-b]pyridin-6-yl)-3,6-dimethyl-4-oxo-chromen-8-yl]ethoxy]pyridine-2-carboxamide] | < 500 nM |
| Cc1cc([C@@H](C)Oc2ccc(Cl)nc2C(N)=O)c2oc(-c3ccc4c(c3)OC(F)(F)O4)c(C)c(=O)c2c1 [Example 60A, 6-Chloro-3-[(1R)-1-[2-(2,2-difluoro-1,3-benzodioxol-5-yl)-3,6-dimethyl-4-oxo-chromen-8-yl]ethoxy]pyridine-2-carboxamide] | < 500 nM |
| Cc1cc([C@@H](C)Oc2ccc(Cl)nc2C(N)=O)c2oc(-c3ccc4occc4c3)c(C)c(=O)c2c1 [Example 61C, 3-[(1R)-1-[2-(Benzofuran-5-yl)-3,6-dimethyl-4-oxo-chromen-8-yl]ethoxy]-6-chloro-pyridine-2-carboxamide] | < 500 nM |
| Cc1cc([C@@H](C)Oc2ccc(Cl)nc2C(N)=O)c2oc(C3CC3)c(C)c(=O)c2c1 [Example 63A, 6-Chloro-3-[(1R)-1-(2-cyclopropyl-3,6-dimethyl-4-oxo-chromen-8-yl)ethoxy]pyridine-2-carboxamide] | < 500 nM |
| Cc1cc([C@@H](C)Oc2ccc(Cl)nc2C)c2oc(-c3cnn(CCO)c3)c(C)c(=O)c2c1 [Example 72C, 8-[(1R)-1-[(6-Chloro-2-methyl-3-pyridyl)oxy]ethyl]-2-[1-(2-hydroxyethyl)pyrazol-4-yl]-3,6-dimethyl-chromen-4-one] | < 500 nM |
